Measured values as given in patent publication US9975869B2 (Sphaera Pharma Pvt. Ltd., priority 2013, dated 2018).

tested on: AMPK; assay: AMPK activation potential, cell based ELISA (Phospho-AMPKα Thr172) in Hep G2 cells; conditions: 10 nm concentration; Hep G2 liver cells; % activity with DMSO control as 100%; 30 min incubation for Epicatechin analogs
Experimental: Testing of Compounds for Their AMPK Activation Potential
AMPK activation potential of the compounds was evaluated using cell based ELISA. Hepatoma (Hep G2) liver cells were maintained in a T 75 culture flask-containing 25 mM DMEM+10% fetal calf serum. The cells were maintained in a T 75 culture flask-containing medium (DMEM+10% fetal calf serum). On reaching a confluence of 70 to 80%, the cells were seeded in a 96 well plate at a density of 40,000 cells per well in 25 mM DMEM+10% FCS medium. The plates were then incubated at 37° C. with 5% CO2 for 24 hours. Various concentrations of drugs were prepared in DMSO and diluted to required concentration with the medium and incubated at 37° C. with 5% CO2 for 30 min and 1 h for Epicatechin analogs and 11-BHP analogs respectively. Metformin was used as positive control. Cells were fixed with 4% formaldehyde for 30 minutes at room temperature and washed three times with PBS containing 0.1% Triton X-100. Endogenous peroxidase was quenched with 1% H2O2 in PBS-T (0.1% Tween 20) for 30 minutes and washed three times in PBS-T. Cells were blocked with 1% BSA in PBS-T for 1 hour. The cells were incubated with 1:1000 dilution primary antibody (Phospho-AMPKα (Thr172) Rabbit mAb, Cell Signaling in PBS-T containing 5% BSA at 4° C. overnight. The cells were then washed three times with PBS-T for 5 minutes and incubated with 1:1000 dilution secondary antibody (Anti-rabbit IgG, HRP-linked Antibody, Cell Signaling) in PBS-T with 1% BSA for 1 hour at RT. Cells were washed three times with PBS-T for 5 minutes The cells were incubated with 100 μl TMB substrate solution for 30 minutes and the reaction was stopped with 100 μl of 2N H2SO4. Then the plate was read at 450 nm using ELISA plate reader and absorbance recorded. % activity was calculated using DMSO control as 100%. All compounds of the present invention, as exemplified and encompassed are found to be active.

Going from `Oc1ccc([C@H]2Oc3ccccc3C[C@H]2O)cc1O` (racemic) [Compound 1002, Cis (±) 3-hydroxychroman-2-yl)benzene-1,2-diol] to `Cc1ccc([C@H]2Oc3cc(O)ccc3C[C@H]2O)cc1O` (stereo in doubt) [Compound 1027, 2-(3-hydroxy-4-methylphenyl)chromane-3,7-diol], the “% pAMPK(at 10 nm)” value falls from 108% to 94%.

Compared with `Oc1ccc([C@H]2Oc3cc(O)ccc3C[C@H]2O)cc1` (racemic) [Compound 1004, Cis (±) 2-(4-hydroxyphenyl)chroman-3,7-diol], `Oc1cccc([C@H]2Oc3cc(O)ccc3C[C@H]2O)c1` (racemic) [Compound 1007, Cis (±) 2-(3-hydroxyphenyl)chroman-3,7-diol] is lower in “% pAMPK(at 10 nm)” value: 114% for the first, 113% for the second.

Going from `Oc1cccc([C@H]2Oc3cccc(O)c3C[C@H]2O)c1` (racemic) [Compound 1005, Cis (±) 2-(3-hydroxyphenyl)chroman-3,5-diol] to `Oc1ccc([C@H]2Oc3cccc(O)c3C[C@H]2O)cc1` (racemic) [Compound 1006, Cis (±) 2-(4-hydroxyphenyl)chroman-3,5-diol], the “% pAMPK(at 10 nm)” value rises from 102% to 103%.

Compared with `Oc1ccc([C@H]2Oc3cc(O)cc(O)c3C[C@H]2O)cc1` (racemic) [Compound 1008, Cis (±) 2-(4-hydroxyphenyl)chroman-3,5,7-triol], `Oc1cc(O)c2c(c1)O[C@H](c1ccc(O)c(F)c1)[C@H](O)C2` (racemic) [Compound 1034, Cis (±) 2-(3-fluoro-4-hydroxyphenyl)chromane-3,5,7-triol] is higher in “% pAMPK(at 10 nm)” value: 103% for the first, 107% for the second.

Going from `Oc1cc(O)c2c(c1)O[C@H](c1ccccc1)[C@H](O)C2` (racemic) [Compound 1015, Cis (±) 2-phenylchroman-3,5,7-triol] to `Cc1c([C@H]2Oc3cc(O)cc(O)c3C[C@H]2O)ccc(O)c1O` (racemic) [Compound 1031, Cis (±) 2-(3,4-dihydroxy-2-methylphenyl)chroman-3,5,7-triol], the “% pAMPK(at 10 nm)” value falls from 119% to 101%.

First: COc1cccc([C@H]2Oc3cc(O)ccc3C[C@H]2O)c1 (racemic) [Compound 1017]
Second: COc1ccc2c(c1)O[C@H](c1cccc(O)c1)[C@H](O)C2 (racemic) [Compound 1018]
The “% pAMPK(at 10 nm)” value of the first is higher: 110% for the first, 100% for the second.

`COc1cccc([C@H]2Oc3cc(OC)ccc3C[C@H]2O)c1` (racemic) [Compound 1019] and `COc1cc([C@H]2Oc3cc(O)ccc3C[C@H]2O)ccc1C` (stereo in doubt) [Compound 1026, 2-(3-methoxy-4-methylphenyl)chromane-3,7-diol] are the same in “% pAMPK(at 10 nm)” value: 101% for the first, 101% for the second.

First: Oc1cc(O)c2c(c1)O[C@H](c1ccc(O)c(O)c1F)[C@H](O)C2 (racemic) [Compound 1032, Cis (±) 2-(2-fluoro-3,4-dihydroxyphenyl)chroman-3,5,7-triol]
Second: Oc1cc(O)c2c(c1)O[C@H](c1cc(O)c(O)cc1F)[C@H](O)C2 (racemic) [Compound 1033, Cis (±) 2-(2-fluoro-4,5-dihydroxyphenyl)chromane-3,5,7-triol]
The “% pAMPK(at 10 nm)” value of the first is lower: 104% for the first, 107% for the second.

First: Cc1cc([C@H]2Oc3cc(O)cc(O)c3C[C@H]2O)cc(O)c1O (racemic) [Compound 1035, Cis (±) (2-(3,4-dihydroxy-5-methylphenyl)chromane-3,5,7-triol]
Second: Oc1ccc2c(c1)OC(c1ccc(F)c(O)c1)[C@H](O)C2 (stereo in doubt) [Compound 1029, 2-(4-fluoro-3-hydroxyphenyl)chromane-3,7-diol]
The “% pAMPK(at 10 nm)” value of the first is higher: 102% for the first, 93% for the second.

With `COc1cc(C2Oc3cc(O)ccc3C[C@H]2O)ccc1F` (stereo in doubt) [Compound 1028, 2-(4-fluoro-3-methoxyphenyl)chromane-3,7-diol] the “% pAMPK(at 10 nm)” value was 101%.
